The values below come from patent publication US5684147A, “Therapeutic anti-HIV anti-viral oligonucleotides and pharmaceutical formulations thereof” (Hybridon, Inc., priority 1994, dated 1997).

The subject of test [1] is HIV-1 reverse transcriptase (RT) activity in chronically infected CEM cells. Conditions: chronically infected human T lymphocytes such as CEM; general statement without data; cited from earlier work.
Test [2] has as its system HIV-1 (HTLVIIIB or HTLVIIIMN strains) in H9 cells. Briefly: HIV p24 antigen capture assay, acute infection of H9 cells. In kind it is cell-based. The note with it: Human immunodeficiency virus 1, H9, Expt. 1. From the text:
After infection, unabsorbed virions are removed by washing.

For test [3], the system named is HIV-1 (HTLVIIIB) in H9 cells. Briefly: Long term infection assay, p24 expression in H9 cells (antigen capture). In kind it is cell-based. Conditions: for inhibition at 0.05 µM: read-out: % inhibition of p24 compared with control.

Read-outs that look alike come from different tables or passages of the source.

In the case of `Cc1cn([C@H]2C[C@H](N=[N+]=[N-])[C@@H](CO)O2)c(=O)[nH]c1=O` [AZT, 3'-azido-3'-deoxythymidine], the “inhibition of HIV replication in chronically infected cells (in words)” value in test [1] is listed as “do not inhibit HIV replication”. This molecule gave an inhibition at 0.005 µM in test [2] (AZT 0.0016 μg/ml (0.005 μM)) of 6%. In test [2] (AZT 0.008 μg/ml (0.02 μM)), the inhibition at 0.02 µM was determined as 44%. In test [2] (AZT 0.04 μg/ml (0.1 μM)), this molecule gave an inhibition at 0.1 µM of 73%. This molecule also yielded an inhibition at 0.6 µM in test [2] (AZT 0.2 μg/ml (0.6 μM)) of 90%.

For the molecule `Nc1ccn([C@H]2CC[C@@H](CO)O2)c(=O)n1` [ddC, dideoxycytosine], the “inhibition of HIV replication in chronically infected cells (in words)” value in test [1] is on record as “do not inhibit HIV replication”. Further, the inhibition at 0.05 µM was 75% in test [3] (Human immunodeficiency virus 1, H9, 72 h, day 3, 25mer 0.60 μM, ddC 0.05 μM); 94% in test [3] (Human immunodeficiency virus 1, H9, 168 h, day 7, 25mer 0.60 μM, ddC 0.05 μM); 91% in test [3] (Human immunodeficiency virus 1, H9, 240 h, day 10, 25mer 0.60 μM, ddC 0.05 μM); 56% in test [3] (Human immunodeficiency virus 1, H9, 336 h, day 14, 25mer 0.60 μM, ddC 0.05 μM); 44% in test [3] (Human immunodeficiency virus 1, H9, 408 h, day 17, 25mer 0.60 μM, ddC 0.05 μM). Moreover, in test [3] (day 3, 25mer 0.60 μM, ddC 0.05 μM, control 489), the “p24 expression” value is 124 pg/mL. For the same molecule, the “p24 expression (pg/ml)” value in test [3] (day 7, 25mer 0.60 μM, ddC 0.05 μM, control 188,800) is 10,800 pg/ml; in test [3] (day 10, 25mer 0.60 μM, ddC 0.05 μM, control 210,400), 17,300 pg/ml; in test [3] (day 14, 25mer 0.60 μM, ddC 0.05 μM, control 130,400), 60,000 pg/ml; in test [3] (day 17, 25mer 0.60 μM, ddC 0.05 μM, control 95,600), 54,000 pg/ml. Besides, the “long term inhibition of p24 expression (in words)” value in test [3] (long term culture, up to day 17) is “ineffectiveness of ddC”.
